Measurements as given in US20240099989A1, “AGENT FOR PREVENTING OR IMPROVING PERIPHERAL NEUROPATHY” (KINKI UNIVERSITY, priority 2021, published 2024).

Tested on: Peripheral Neuropathy in a Mouse Caused by Vincristine
Type: in vivo, Balb/c mice
Details: 0.2 mg/kg vincristine + 100 mg/kg orally daily from Day 6 (therapy); from Day 12 onwards
Source text: (§1) Six to seven-week-old female Balb/c mice were used for the tests. All the mice were acclimated for seven days after arrival. Then, the mice were grouped into the following four groups: a control group, a group receiving vincristine, a group receiving xylitol, and a group receiving vincristine and xylitol (a group receiving vincristine+xylitol). Each group consisted of five mice.
On Day 8 of acclimation, the mice in the group receiving vincristine and the group receiving vincristine+xylitol were intraperitoneally administered with vincristine at a dose of 0.2 mg/kg. This day was designated as Day 0 of administration. Thereafter, these mice were intraperitoneally administered with vincristine at a daily dose of 0.2 mg/kg on Day 7 and Day 14.
The mice in the group receiving xylitol and the group receiving vincristine+xylitol were orally administered with xylitol at a dose of 5 mg/kg daily from Day 0.
The mice in the four groups described in (7) of the present example (Example 1) were placed in a cage, and the avoidance response frequency (score) was measured by pressing a filament with a bending force of 0.16 g against the back of the hind paw.
as §1, with “tests as with Example 1.” for “tests.”, “mice. […]” for “mice.”
For the mice in the four groups described in (9) of the present example (Example 2), the avoidance response frequency (score) was measured by pressing a filament with a bending force of 0.16 g against the back of the hind paw. […]
The mice in the four groups described in (7) of the present example (Example 3) were placed in a cage, and the avoidance response frequency (score) was measured by pressing a filament with a bending force of 0.16 g against the back of the hind paw. […]

With `OC[C@H](O)[C@H](O)[C@H](O)[C@@H](O)CO` [L-talitol] the avoidance response score was “maintained a score clearly lower than that of the group receiving vincristine”.

`OC[C@@H](O)[C@H](O)CO` [D-threitol] was tested, and the avoidance response score was “maintained a score clearly lower than that of the group receiving vincristine”.

`OC[C@@H](O)[C@H](O)[C@@H](O)CO` [xylitol] was tested, and the avoidance response score was “maintained a score clearly lower than that of the group receiving vincristine”.
